According to article PMC11279566, “Novel Coumarin–Nucleobase Hybrids with Potential Anticancer Activity: Synthesis, In Vitro Cell-Based Evaluation, and Molecular Docking” (Pharmaceuticals, 2024):
Like-named read-outs stand apart in the source and are kept apart here.

Experiments:
[1] = tested on: human colon carcinoma cells (HCT116); assay: colorimetric MTT cytotoxicity assay, HCT116; assay type: cell-based; conditions: for IC50: Homo sapiens, HCT-116, MTT, n = 3, compounds as HP-β-CD inclusion complex; for Selectivity Index HCT116 24 h: IC50 of HaCat / IC50 of HCT116, 24 h; for Selectivity Index HCT116 48 h: IC50 of HaCat / IC50 of HCT116, 48 h
Procedure: (§1) The potential antitumor activity of eight new hybrids was evaluated through colorimetric microculture MTT assay against three tumor cell lines: human colon carcinoma cells (HCT116), human laryngeal tumor cells (Hep-2), and human lung carcinoma cells (A549). The hybridized compounds were also assayed against the non-tumor cell line HaCat (human keratinocyte) in order to obtain an indication of their selective cytotoxicity. Also, the commercial anticancer drug doxorubicin was employed as a positive drug standard to compare the cytotoxicity activities. Each experiment was carried out in triplicate on three different days. The selectivity index (SI) was calculated as the ratio between the IC50 (concentration that reduces cell viability by 50%) of HaCat (non-tumor line) and the IC50 of the tumor lines.
(§2) A total of 1 mL of an ethanolic solution containing compounds 7a,b, 8a,b, 9a,b, or 10a,b (0.004 mol L^−1) was vigorously stirred with 1 mL of an aqueous solution of HP-β-CD (0.004 mol L^−1). The resulting mixture was kept under stirring until a clear solution was obtained. The final solution was concentrated under a vacuum to remove the solvent, and the remaining water was removed by lyophilization to give a water-soluble compound of the HP-β-CD complex in a powder form. The stock solutions of the compounds were prepared by dissolving the complexed compounds in 200 µL of DMSO, followed by dissolving in 1800 µL of Dulbecco’s Modified Eagle Medium (DMEM). The stock solution and dilutions were prepared prior to the cytotoxicity assays.
(§3) The human colon carcinoma (HCT116), human laryngeal tumor (Hep-2), and human lung carcinoma (A549) cell lines, and the non-tumor human keratinocyte cell line (HaCat) were purchased from Rio de Janeiro Cell Bank. The cells were maintained in DMEM supplemented with […]; Life Technologies, Carlsbad, CA, USA) and 1% penicillin–streptomycin in a humidified 5% CO2 atmosphere at 37 °C.
(§4) Cytotoxicity was assayed through the colorimetric microculture MTT assay. Cell suspensions were plated in 96-well plates in triplicate at an initial density of 7 × 10^4 cells mL^−1 and incubated at 37 °C for 24 h. After the incubation, the cells were treated with various concentrations of the evaluated compounds (7a,b, 8a,b, 9a,b, or 10a,b) and incubated for 24 and 48 h. After the treatment, the medium was removed, and an MTT solution (0.4 mg mL^−1) was added to each well and further incubated for 2 h at 37 °C. Then, DMSO (100 µL) was added for the solubilization of the formazan crystals, and the absorbance intensities were measured in a microplate reader (SpectraMax M2e, Molecular Devices, Sunnyvale, CA, USA) at 570 nm. The percentage of viable cells was calculated in relation to the control to determine the cytotoxic concentration that reduces 50% of the cell viability (IC50).

[2] = tested on: human lung carcinoma cells (A549); assay: colorimetric MTT cytotoxicity assay, A549; assay type: cell-based; conditions: for IC50: Homo sapiens, MTT, n = 3, compounds as HP-β-CD inclusion complex
Procedure: as §1, §2, §3, §4

[3] = tested on: human laryngeal tumor cells (Hep-2); assay: colorimetric MTT cytotoxicity assay, Hep-2; assay type: cell-based; conditions: for IC50: Homo sapiens, MTT, n = 3, compounds as HP-β-CD inclusion complex; for Selectivity Index Hep-2 24 h: IC50 of HaCat / IC50 of Hep-2, 24 h
Procedure: as §1, §2, §3, §4

[4] = tested on: HaCat (human keratinocyte); assay: colorimetric MTT cytotoxicity assay, non-tumor HaCat; assay type: cell-based; conditions: for IC50: Homo sapiens, HaCat non-tumor line, MTT, n = 3, compounds as HP-β-CD inclusion complex
Procedure: as §1, §2, §3, §4

[5] = tested on: human prostate cancer cell line (DU145); design: method as in PMID 23124212; conditions: read-out: IC50 against DU145 cell line; cited from earlier work
[6] = tested on: human acute T lymphoblastic leukemia cell lines (MOLT-3); design: method as in PMID 25078311; conditions: antiproliferative activity, read-out: IC50 against MOLT3 cell line; cited from earlier work
[7] = HCT116, 24 h, read-out: IC50 (µM ± SD) HCT116 24 h
[8] = HCT116, 48 h, read-out: IC50 (µM ± SD) HCT116 48 h
[9] = A549, 24 h, read-out: IC50 (µM ± SD) A549 24 h
[10] = A549, 48 h, read-out: IC50 (µM ± SD) A549 48 h
[11] = Hep-2, 24 h, read-out: IC50 (µM ± SD) Hep-2 24 h
[12] = Hep-2, 48 h, read-out: IC50 (µM ± SD) Hep-2 48 h
[13] = 24 h, read-out: IC50 (µM ± SD) HaCat 24 h
[14] = 48 h, read-out: IC50 (µM ± SD) HaCat 48 h

SMILES	melting point	IC50 [1, 7] [µM]	IC50 [1, 8] [µM]	Selectivity Index HCT116 24 h [1]	IC50 [2, 9] [µM]	IC50 [2, 10] [µM]	IC50 [3, 11] [µM]	IC50 [3, 12] [µM]	IC50 [4, 13] [µM]	IC50 [4, 14] [µM]	Selectivity Index Hep-2 24 h [3]	Selectivity Index HCT116 48 h [1]	Selectivity Index A549 48 h ([2]; IC50 of HaCat / IC50 of A549, 48 h)	cytotoxicity for Hep-2 cells (in words) [3]	IC50 [5] [µM]	IC50 [6] [µM]	activity compared to doxorubicin (fold) ([1]; HCT116 cell line, IC50 relative to doxorubicin)	cytotoxicity effect against A549 cells (in words) ([2]; 24 and 48 h treatments)	cytotoxicity against the non-tumor cells HaCat (in words) ([4]; highest evaluated concentration 100 μM, all exposure times)
Cc1cn(Cc2cn(Cc3cc(=O)oc4cc(O)cc(O)c34)nn2)c(=O)[nH]c1=O [Compound 7b, 1-((1-((5,7-Dihydroxy-2-oxo-2H-chromen-4-yl)methyl)-1H-1,2,3-triazol-4-yl)methyl)-5-methylpyrimidine-2,4(1H,3H)-dione]	285 °C (dec.)	> 100	> 100		> 100	> 100	> 100	> 100	> 100	> 100									
O=C1C(=O)N(CCCn2cc(Cn3ccc(=O)n(Cc4cn(CCCN5C(=O)C(=O)c6ccc(Cl)cc65)nn4)c3=O)nn2)c2cc(Cl)ccc21 [B]															13.9				
COc1cccc2c1C(=O)c1c(O)c3c(c(O)c1C2=O)C[C@@](O)(C(=O)CO)C[C@@H]3O[C@H]1C[C@H](N)[C@H](O)[C@H](C)O1 [Doxorubicin, doxorubicin, reference compound]			1.23 ± 0.05					1.69 ± 0.15		39.3 ± 1.59									
O=c1ccn(Cc2cn(Cc3cc(=O)oc4cc(O)cc(O)c34)nn2)c(=O)[nH]1 [Compound 7a, 1-((1-((5,7-Dihydroxy-2-oxo-2H-chromen-4-yl)methyl)-1H-1,2,3-triazol-4-yl)methyl) Pyrimidine-2,4(1H,3H)-dione]	230 °C (dec.)	> 100	> 100		> 100	> 100	> 100	> 100	> 100	> 100									
COc1cccc(/C=C/C(=O)c2cccc(-n3cc(COc4cc(=O)oc5ccccc45)nn3)c2)c1OC [A]																0.53			

Further lines, with some results ahead:

melting point	SMILES	IC50 [1, 7] [µM]	IC50 [1, 8] [µM]	Selectivity Index HCT116 24 h [1]	IC50 [2, 9] [µM]	IC50 [2, 10] [µM]	IC50 [3, 11] [µM]	IC50 [3, 12] [µM]	IC50 [4, 13] [µM]	IC50 [4, 14] [µM]	Selectivity Index Hep-2 24 h [3]	Selectivity Index HCT116 48 h [1]	Selectivity Index A549 48 h ([2]; IC50 of HaCat / IC50 of A549, 48 h)	cytotoxicity for Hep-2 cells (in words) [3]	IC50 [5] [µM]	IC50 [6] [µM]	activity compared to doxorubicin (fold) ([1]; HCT116 cell line, IC50 relative to doxorubicin)	cytotoxicity effect against A549 cells (in words) ([2]; 24 and 48 h treatments)	cytotoxicity against the non-tumor cells HaCat (in words) ([4]; highest evaluated concentration 100 μM, all exposure times)
270 to 272 °C	Cc1cn(Cc2cn(Cc3cc(=O)oc4c3ccc3ccccc34)nn2)c(=O)[nH]c1=O [Compound 8b, 1-((1-((2-Oxo-2H-benzo[h]chromen-4-yl)methyl)-1H-1,2,3-triazol-4-yl)methyl)-5-methylpyrimidine-2,4(1H,3H)-dione]	87.6 ± 1.94	> 100	5	> 100	> 100	> 100	> 100	454.1 ± 2.67	> 100									
315 °C (dec.)	Cn1cnc2c1c(=O)n(Cc1cn(Cc3cc(=O)oc4cc(O)cc(O)c34)nn1)c(=O)n2C [Compound 10a, 1-((1-((5,7-Dihydroxy-2-oxo-2H-chromen-4-yl)methyl)-1H-1,2,3-triazol-4-yl)methyl)-3,7-dimethyl-3,7-dihydro-1H-purine-2,6-dione]	78.3 ± 1.89	> 100	4	> 100	> 100	56.6 ± 1.75	> 100	307.8 ± 2.49	> 100	5								
193 to 195 °C	O=c1cc(Cn2cc(Cn3ccc(=O)n(Cc4cn(Cc5cc(=O)oc6c5ccc5ccccc56)nn4)c3=O)nn2)c2ccc3ccccc3c2o1 [Compound 9b, 1,3-Bis((1-((2-oxo-2H-benzo[h]chromen-4-yl)methyl)-1H-1,2,3-triazol-4-yl)methyl)pyrimidine-2,4(1H,3H)-dione]	54.5 ± 1.74	59.2 ± 1.77	19	> 100	51 ± 1.71	> 100	> 100	1049 ± 3.02	3228 ± 3.5		55	63	No appreciative cytotoxicity was observed					
235 °C (dec.)	O=c1ccn(Cc2cn(Cc3cc(=O)oc4c3ccc3ccccc34)nn2)c(=O)[nH]1 [Compound 8a, 1-((1-((2-Oxo-2H-benzo[h]chromen-4-yl)methyl)-1H-1,2,3-triazol-4-yl)methyl) Pyrimidine-2,4(1H,3H)-dione]	> 100	> 100		> 100	> 100	> 100	> 100	> 100	> 100									
288 to 290 °C	Cn1cnc2c1c(=O)n(Cc1cn(Cc3cc(=O)oc4c3ccc3ccccc34)nn1)c(=O)n2C [Compound 10b, 3,7-Dimethyl-1-((1-((2-oxo-2H-benzo[h]chromen-4-yl)methyl)-1H-1,2,3-triazol-4-yl)methyl)-3,7-dihydro-1H-purine-2,6-dione]	41 ± 1.61	84.7 ± 1.92	6	> 100	> 100	> 100	> 100	263.3 ± 2.42	120 ± 2.08									
302 °C (dec.)	O=c1cc(Cn2cc(Cn3ccc(=O)n(Cc4cn(Cc5cc(=O)oc6cc(O)cc(O)c56)nn4)c3=O)nn2)c2c(O)cc(O)cc2o1 [Compound 9a, 1,3-Bis((1-((5,7-dihydroxy-2-oxo-2H-chromen-4-yl)methyl)-1H-1,2,3-triazol-4-yl)methyl)pyrimidine-2,4(1H,3H)-dione]	69.2 ± 1.85	24.2 ± 1.39		> 100	> 100	51.6 ± 1.71	> 100	634.9 ± 2.8	142 ± 2.15	12	6					approximately 20 fold	No cytotoxicity effect was observed	did not exhibit appreciable cytotoxicity
